Data published in US9872875B2, “Component and method for treating viral disease” (Institut Pasteur of Shanghai, Chinese Academy of Sciences, priority 2012, dated 2018).

Experiments:
[1] = biological target: T1, P2X3 receptor (Homo sapiens, UniProt P56373); details: Table 8, antagonists; cited from earlier work
T1 sequence (P56373 1-397): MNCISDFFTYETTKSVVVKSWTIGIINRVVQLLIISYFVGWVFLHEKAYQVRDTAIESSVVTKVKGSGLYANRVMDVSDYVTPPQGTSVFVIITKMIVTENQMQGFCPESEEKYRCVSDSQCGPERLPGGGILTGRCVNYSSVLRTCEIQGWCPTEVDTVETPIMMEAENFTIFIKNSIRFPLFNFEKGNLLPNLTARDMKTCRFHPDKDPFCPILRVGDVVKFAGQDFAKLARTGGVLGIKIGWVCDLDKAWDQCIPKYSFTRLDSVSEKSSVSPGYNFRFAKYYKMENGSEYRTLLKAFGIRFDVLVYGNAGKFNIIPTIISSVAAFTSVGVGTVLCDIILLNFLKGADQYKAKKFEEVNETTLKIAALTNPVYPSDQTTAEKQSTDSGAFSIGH

[2] = biological target: T2, P2X4 receptor (Homo sapiens, UniProt Q99571); details: Table 8, antagonists; cited from earlier work
T2 sequence (Q99571 1-388): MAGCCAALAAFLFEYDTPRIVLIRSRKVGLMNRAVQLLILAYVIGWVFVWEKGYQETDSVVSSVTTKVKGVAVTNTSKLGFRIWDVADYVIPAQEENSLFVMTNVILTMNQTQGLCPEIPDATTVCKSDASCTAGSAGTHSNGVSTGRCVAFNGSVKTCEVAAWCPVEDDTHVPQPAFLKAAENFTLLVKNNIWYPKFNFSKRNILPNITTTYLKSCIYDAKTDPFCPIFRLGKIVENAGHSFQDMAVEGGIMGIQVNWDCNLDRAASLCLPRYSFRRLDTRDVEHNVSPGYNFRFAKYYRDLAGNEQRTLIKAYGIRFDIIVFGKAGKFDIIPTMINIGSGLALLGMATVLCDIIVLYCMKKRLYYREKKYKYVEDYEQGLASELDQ

[3] = system: EV71; experiment: Inhibition of EV71 replication in RD cells at 0.1, 1, 10 and 100 μM (CPE, crystal violet); type: cell-based, Enterovirus 71; details: Table 8, antagonists
Outline: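 RD cells infected with EV71 and treated at 0.1, 1, 10 and 100 μM were incubated 3˜4 days, crystal violet-stained and inspected microscopically for CPE. Cytotoxicity was checked in parallel by culturing uninfected RD cells with compound for 3˜4 days and examining cell-layer damage.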

[4] = biological target: T3, P2X7 receptor (Homo sapiens, UniProt Q99572); details: Table 8, antagonists; cited from earlier work
T3 sequence (Q99572 1-595): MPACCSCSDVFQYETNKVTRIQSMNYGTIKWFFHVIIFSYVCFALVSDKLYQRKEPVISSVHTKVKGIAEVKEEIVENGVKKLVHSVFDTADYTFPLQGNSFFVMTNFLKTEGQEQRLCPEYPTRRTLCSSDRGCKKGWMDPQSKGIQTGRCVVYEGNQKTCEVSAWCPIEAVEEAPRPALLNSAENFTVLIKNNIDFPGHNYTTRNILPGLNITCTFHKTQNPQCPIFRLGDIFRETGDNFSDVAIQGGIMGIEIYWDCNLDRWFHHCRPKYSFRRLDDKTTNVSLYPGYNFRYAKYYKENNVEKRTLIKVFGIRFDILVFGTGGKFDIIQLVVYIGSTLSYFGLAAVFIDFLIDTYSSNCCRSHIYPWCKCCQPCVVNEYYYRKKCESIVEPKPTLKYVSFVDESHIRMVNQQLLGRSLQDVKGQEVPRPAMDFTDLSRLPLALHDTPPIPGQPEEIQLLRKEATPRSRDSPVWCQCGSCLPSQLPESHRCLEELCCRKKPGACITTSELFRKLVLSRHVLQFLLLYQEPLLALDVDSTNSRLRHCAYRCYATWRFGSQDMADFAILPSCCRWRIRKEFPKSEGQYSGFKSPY

[5] = biological target: P2X5 receptor (Homo sapiens, UniProt Q93086); details: Table 8, antagonists; cited from earlier work
Chain of P2X5 receptor (Q93086 whole entry): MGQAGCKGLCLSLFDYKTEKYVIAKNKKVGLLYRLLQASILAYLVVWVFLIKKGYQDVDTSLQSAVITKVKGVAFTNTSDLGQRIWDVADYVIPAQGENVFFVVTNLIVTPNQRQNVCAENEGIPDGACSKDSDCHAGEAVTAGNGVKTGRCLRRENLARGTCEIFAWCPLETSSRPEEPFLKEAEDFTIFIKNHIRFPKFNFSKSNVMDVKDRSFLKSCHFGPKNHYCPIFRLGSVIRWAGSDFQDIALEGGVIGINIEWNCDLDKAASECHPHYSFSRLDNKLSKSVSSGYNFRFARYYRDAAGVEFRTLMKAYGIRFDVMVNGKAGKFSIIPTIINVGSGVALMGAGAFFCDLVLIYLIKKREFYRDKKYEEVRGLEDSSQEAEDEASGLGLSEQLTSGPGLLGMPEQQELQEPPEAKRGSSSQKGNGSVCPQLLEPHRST

[6] = system: EV71 clinical isolate (EV71 FY 573); experiment: EV71 plaque forming units in RD cells; type: cell-based, Enterovirus 71; details: Enterovirus A, EV71 FY 573, 5-7 days, read-out: EC50 to reduce EV71 PFU in RD cells
Experimental: EV71 (clinical isolate of EV71 FY 573) was used to infect RD cells cultured in 12-well plates at different E02 concentrations. After cultured for 5 to 7 days, stained and plaque forming units were calculated. Procedures are detailed as follows:
(1) Cell seeding: 24 h prior to infection, RD cells were seeded in 12-well cell culture plates, 2×10^5 cells per well.
(2) Infection of cells: • a. Virus pre-incubated with drug: virus stock solution was in 10-fold serially diluted with DMEM to 50,000 PFU/ml, 5,000 PFU/ml, and 500 PFU/ml; and dispensed to 12-well plates at 500 μl per well, and 56 μl of E02 dissolved in DMEM at corresponding concentration was added, and incubated at 37° C. for 1 h; • b. Cells pre-incubated with drug: cell culture medium was removed from 12-well plates, each well was added 500 μl DMEM, then added 56 μl of E02 solution at corresponding concentration, and incubated at 37° C. for 1 h; • c. After 1 h incubation, drug was discarded from cell culture plates, 556 μl of virus pre-incubated with drug was transferred to cell culture plates, and incubated at 37° C. for 1 h; • d. […]
(3) After cultured for 5-7 days, gels were removed, stained with crystal violet, washed once with PBS, plaque numbers recorded and plaque forming units calculated.

[7] = system: EV71 M.A.V. (mouse-adapted strain); experiment: EV71 M.A.V. PFU in RD cells; type: cell-based, Enterovirus 71; details: Enterovirus A, read-out: EC50 to reduce EV71 M.A.V. PFU in RD cells
Experimental: EV71 M.A.V. was used to infect RD cells cultured in 12-well plates at different E02 concentrations. After cultured for 5 to 7 days, stained and plaque-forming units were calculated. Detailed procedures were the same as the corresponding PFU testing method of Example 1.

SMILES	P2X receptors 3 [1]	P2X receptors 4 [2]	Inhibition of EV71 replication [3]	P2X receptors 7 [4]	P2X receptors 5 [5]	EC50 [6] [nM]	EC50 [7] [nM]
Cc1nc(N=Nc2ccc(S(=O)(=O)O)cc2S(=O)(=O)O)c(COP(=O)(O)O)c(C=O)c1O [PPADS, pyridoxal-phosphate-6-azophenyl-2′, 4′-disulphonic acid]	++ (++: inhibitory concentration = 10~300 nM)	−	+ (+: inhibitory concentration >300 nM)	+ (+: inhibitory concentration >300 nM)	++ (++: inhibitory concentration = 10~300 nM)		
Cc1ccc(C(=O)Nc2ccc(S(=O)(=O)O)c3cc(S(=O)(=O)O)cc(S(=O)(=O)O)c23)cc1NC(=O)c1cccc(NC(=O)Nc2cccc(C(=O)Nc3cc(C(=O)Nc4ccc(S(=O)(=O)O)c5cc(S(=O)(=O)O)cc(S(=O)(=O)O)c45)ccc3C)c2)c1 [E02, Suramin Sodium]	+ (+: inhibitory concentration >300 nM)	−	+ (+: inhibitory concentration >300 nM)	−	++ (++: inhibitory concentration = 10~300 nM)	2600	2000
